Experimental data: patent US10202346B2, “Phenol derivatives and the pharmaceutical or cosmetic use thereof” (Galderma Research & Development, priority 2009, dated 2019)

Assays:
receptors of AR type = target: T1, receptors of AR type (Homo sapiens, UniProt P10275); test: AR transactivation test in PALM (PC3 Androgen receptor Luciferase MMTV) cell line; assay type: cell-based; details: cross curves against reference agonist methyltrienolone, read-out: Kdapp (apparent dissociation constant)
T1 construct: expressed in transfected cells; host or cells: PALM cells (PC3 stably transfected with PMMTV-neo-Luc and pSG5puro-AR)
T1 sequence (P10275 1-920): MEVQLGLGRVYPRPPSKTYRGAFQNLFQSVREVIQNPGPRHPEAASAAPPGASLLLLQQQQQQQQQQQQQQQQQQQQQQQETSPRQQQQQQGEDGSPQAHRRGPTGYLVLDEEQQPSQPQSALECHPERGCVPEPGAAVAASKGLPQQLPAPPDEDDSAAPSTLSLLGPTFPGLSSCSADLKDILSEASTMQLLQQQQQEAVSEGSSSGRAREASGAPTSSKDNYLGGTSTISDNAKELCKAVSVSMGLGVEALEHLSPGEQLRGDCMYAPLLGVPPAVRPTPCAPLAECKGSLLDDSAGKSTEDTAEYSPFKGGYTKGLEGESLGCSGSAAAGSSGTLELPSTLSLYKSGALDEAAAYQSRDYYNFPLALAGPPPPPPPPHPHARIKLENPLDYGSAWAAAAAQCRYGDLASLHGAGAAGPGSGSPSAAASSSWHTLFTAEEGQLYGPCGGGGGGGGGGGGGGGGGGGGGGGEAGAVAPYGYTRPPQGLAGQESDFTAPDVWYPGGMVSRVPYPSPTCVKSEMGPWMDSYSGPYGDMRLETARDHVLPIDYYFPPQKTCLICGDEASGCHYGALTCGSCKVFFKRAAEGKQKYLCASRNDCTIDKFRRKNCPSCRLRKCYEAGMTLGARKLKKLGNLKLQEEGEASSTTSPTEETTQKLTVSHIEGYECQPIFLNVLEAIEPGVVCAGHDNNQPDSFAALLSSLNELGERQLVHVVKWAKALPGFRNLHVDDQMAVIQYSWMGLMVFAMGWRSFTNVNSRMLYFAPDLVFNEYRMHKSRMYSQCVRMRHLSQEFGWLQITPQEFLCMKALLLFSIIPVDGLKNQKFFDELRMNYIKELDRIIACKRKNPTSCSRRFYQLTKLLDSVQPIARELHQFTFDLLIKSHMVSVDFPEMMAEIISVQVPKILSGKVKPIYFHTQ
Method: The compounds according to the invention show inhibitory properties on receptors of AR type. This AR receptor-inhibiting activity is measured in a transactivation test through the KdR (resting), KdA (active) and Kdapp (apparent) dissociation constants according to the method set out in J. Molecular Biology (1965), 12(1), 88-118, Monod J. of et al.
The transactivation test is carried out in the PALM (PC3 Androgen receptor Luciferase MMTV) cell line which is a stable transfectant containing the PMMTV-neo-Luc (reporter gene) and pSG5puro-AR plasmids.
In this study, the affinity of each product for the 2 receptor states (KdR and KdA) is determined, as is an apparent Kd (KdApp). This constant is a result of the 2 Kd, but also depends on the initial equilibrium of the receptor between the active state and the resting state (L0) and on its expression level. It is determined by means of the following formula: 1/KdApp=(L0/(1+L0))×(1/KdR)+(1/(1+L0))×(1/KdA)
To determine these constants, “cross curves” of the test product against a reference agonist, methyltrienolone, are produced in 96-well plates. The test product is used at 10 concentrations and the reference agonist at 7 concentrations, […]

## COc1cc(NCc2ccccc2O)cc(Br)n1 [Example 1, 2-[(2-Bromo-6-methoxypyridin-4-ylamino)methyl]phenol]
Receptors of AR type
  Kd: 20 nM
other
  melting point: 137 °C

## Oc1ccc(F)cc1CNc1ccnc(Br)c1 [Example 4, 2-[(2-Bromopyridin-4-ylamino)methyl]-4-fluorophenol]
Receptors of AR type
  Kd: 20 nM

## Oc1ccccc1CNc1ccnc(Cl)c1 [Example 2, 2-[(2-Chloropyridin-4-ylamino)methyl]phenol]
Receptors of AR type
  Kd: 4 nM

## COc1cc(NCc2ccccc2O)ccn1 [Example 5, 2-[(2-Methoxypyridin-4-ylamino)methyl]phenol]
Receptors of AR type
  Kd: 50 nM
